These results are taken from patent US20040106545A1, “Compounds and methods for modulating cell adhesion” (priority 1996, published 2004).

Entries after “also recorded” stand apart in the source; their conditions may differ. Where two headings read alike, the source gives them in different places. Positions of bridges follow the written chain, without caps; N, C: chain ends. Residues, ends and D or L forms follow the SMILES beside them.

By IC50 is commonly meant the concentration that inhibits the measured activity by half. A low value points to inhibition by little substance. In general, inhibition refers to the percentage by which the read-out fell short of the control.

For data set [1], the system named is Bovine pulmonary artery endothelial cells. The data set can be described thus: Disruption of bovine endothelial cell adhesion. The data set is classed as cell-based. The note with it: 500 μg/ml, 30 minutes. Here is the method: For use within one such assay, bovine pulmonary artery endothelial cells may be harvested by sterile ablation and digestion in 0.1% collagenase (type II; Worthington Enzymes, Freehold, N.J.). Cells may be maintained in Dulbecco's minimum essential medium supplemented with 10% fetal calf serum and 1% antibiotic-antimycotic at 37° C. in 7% CO2 in air. Cultures may be passaged weekly in trypsin-EDTA and seeded onto tissue culture plastic at 20,000 cells/cm^2. Endothelial cultures may be used at 1 week in culture, which is approximately 3 days after culture confluency is established. The cells may be seeded onto coverslips and treated (e.g., for 30 minutes) with modulating agent or a control compound at, for example, 500 μg/ml and then fixed with 1% paraformaldehyde. As noted above, disruption of cell adhesion may be determined visually within 24 hours, by observing retraction of the cells from one another. This assay evaluates the effect of a modulating agent on N-cadherin mediated cell adhesion.
Bovine pulmonary artery endothelial cells were harvested by sterile ablation and digestion in 0.1% collagenase (type II; Worthington Enzymes, Freehold, N.J.). Cells were maintained in Dulbecco's minimum essential medium (Clonetics, San Diego, Calif.) supplemented with 10% fetal calf serum (Atlantic Biologicals, Nor cross, Ga.) and 1% antibiotic-antimycotic at 37° C. in 7% CO2 in air. Cultures were passaged weekly in trypsin-EDTA (Gibco, Grand Island, N.Y.) and seeded onto tissue culture plastic at 20,000 cells/cm^2 for all experiments. Endothelial cultures were used at 1 week in culture, which is approximately 3 days after culture confluency was established. The cells used in all protocols were between 4th passage and 10th passage. The cells were seeded onto coverslips and treated 30 minutes with N—Ac-CHAVC-NH2 (SEQ ID NO:10) or N—Ac-CHGVC-NH2 (SEQ ID NO:11) at 500 μg/ml and then fixed with 1% paraformaldehyde.

For data set [2], the system named is PC-3. The data set can be described thus: Cytotoxicity, MTT assay, PC-3. The data set is classed as cell-based, human. In short, it runs like this: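 Peptide concentrations reached 100 μM. Both an MTT cytotoxicity read-out and ^3H-thymidine incorporation for proliferation were used.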
In general terms: Tetrazolium assays rely on reduction of a dye to a coloured formazan, in cell work by metabolically active cells.

Data set [3] addresses T1, N-cadherin (Gallus gallus, UniProt P10288).
T1 construct: expressed in transfected cells; host or cells: 3T3 fibroblasts (monolayer)
T1 sequence (P10288 165-912): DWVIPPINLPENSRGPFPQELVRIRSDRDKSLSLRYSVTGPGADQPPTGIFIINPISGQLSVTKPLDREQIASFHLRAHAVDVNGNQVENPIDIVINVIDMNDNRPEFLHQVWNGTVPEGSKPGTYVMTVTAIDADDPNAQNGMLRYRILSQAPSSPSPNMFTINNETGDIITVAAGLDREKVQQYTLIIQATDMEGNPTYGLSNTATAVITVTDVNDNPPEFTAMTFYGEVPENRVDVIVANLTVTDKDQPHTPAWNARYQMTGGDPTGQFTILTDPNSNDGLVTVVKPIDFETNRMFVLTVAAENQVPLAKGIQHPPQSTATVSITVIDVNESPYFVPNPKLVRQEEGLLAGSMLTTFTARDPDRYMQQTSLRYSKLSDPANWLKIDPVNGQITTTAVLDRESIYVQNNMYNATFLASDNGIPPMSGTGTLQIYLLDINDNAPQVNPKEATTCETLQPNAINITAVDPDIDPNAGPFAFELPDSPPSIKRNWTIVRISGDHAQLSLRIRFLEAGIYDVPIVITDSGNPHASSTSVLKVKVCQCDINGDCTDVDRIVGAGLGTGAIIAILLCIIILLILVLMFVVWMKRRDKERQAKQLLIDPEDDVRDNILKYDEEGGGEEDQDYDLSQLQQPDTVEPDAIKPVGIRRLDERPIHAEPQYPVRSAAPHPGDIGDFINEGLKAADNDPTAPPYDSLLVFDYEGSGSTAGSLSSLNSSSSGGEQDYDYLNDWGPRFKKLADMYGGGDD
Description: Neurite outgrowth inhibition, rat neurons (Example 21). The data set is classed as cell-based. The note with it: 250 μg/mL; for inhibition at 250 µg/mL: read-out: % Inhibition of neurite outgrowth.

On to `CC[C@H](C)[C@@H]1NC(=O)[C@H](CC(=O)O)NC(=O)[C@H](C(C)C)NC(=O)[C@H](C)NC(=O)[C@H](Cc2c[nH]cn2)NC(=O)[C@H](C)NC(=O)[C@@H](NC(C)=O)CSSC[C@@H](C(N)=O)NC1=O` (Ac-CAHAVDIC-NH2; disulfide 1-8), for which the “effect on endothelial cell monolayer / morphology” value in data set [1] (listed as N—Ac-CAHAVDIC-NH2) was “neither of the cyclic peptides show activity; also recorded: had no effect on endothelial cell morphology”. In data set [2], the half-maximal inhibitory concentration (IC50) was above 100 µM. Moreover, the inhibition at 250 µg/mL in data set [3] came out at 82%.
Turning to `CC(=O)N[C@H]1CSSC[C@@H](C(N)=O)NC(=O)[C@H](CC(=O)O)NC(=O)[C@H](C(C)C)NC(=O)[C@H](C)NC(=O)[C@H](Cc2c[nH]cn2)NC(=O)[C@H](C)NC1=O` [N—Ac—CAHAVDC—NH2, N-Ac-Cys-Ala-His-Ala-Val-Asp-Cys-NH2] (Ac-CAHAVDC-NH2; disulfide 1-7), the “effect on endothelial cell monolayer / morphology” value in data set [1] is “endothelial cells retracted from one another; also recorded: had a slight effect”. Besides, the half-maximal inhibitory concentration (IC50) in data set [2] is above 100 µM.
As for `CC(=O)N[C@H]1CSSC[C@@H](C(N)=O)NC(=O)[C@H](C(C)C)NC(=O)[C@H](C)NC(=O)[C@H](Cc2c[nH]cn2)NC1=O` [N—Ac—CHAVC—NH2, N-Ac-Cys-His-Ala-Val-Cys-NH2], the “effect on endothelial cell monolayer / morphology” value in data set [1] was “endothelial cells retracted from one another; also recorded: disrupted the endothelial cell monolayer”. The compound also yielded an IC50 in data set [2] (human) above 100 µM. In data set [3], the “inhibition of neurite outgrowth (in words)” value is recorded as “significantly inhibited neurite outgrowth” and the inhibition at 250 µg/mL was 65%.
Take `CC(=O)N[C@H]1CSSC[C@@H](C(N)=O)NC(=O)[C@H](C(C)C)NC(=O)CNC(=O)[C@H](Cc2c[nH]cn2)NC1=O` [N—Ac—CHGVC—NH2, reference compound]: the “effect on endothelial cell monolayer / morphology” value in data set [1] is recorded as “had no affect on the cells”. This compound yielded an IC50 in data set [2] above 100 µM. Moreover, the inhibition at 250 µg/mL in data set [3] came out at 0%.
